Consider 19 compounds from US20250353848A1, “HETEROCYCLIC PAD4 INHIBITORS” (Celgene Corporation, priority 2022, published 2025).

The target of test [1] is T1, hPAD4 enzyme (Homo sapiens, UniProt Q9UM07). The test can be described thus: RFMS Assay 2 (rapid-fire mass spectrum PAD4 inhibition assay, peptide substrate). In kind it is biochemical. Particulars: 35 nM recombinant human PAD4, substrate TSTGGRQGSHH, room temperature for 30 minutes; read-out: human PAD4 (hPAD4) IC50, RFMS Assay 2. The method, then: Stock compounds were dissolved and stored in 100% DMSO. Compound solutions were prepared via serial dilution at 3-fold intervals in DMSO with top compound concentration at […] in each assay. 0.25 μl of compound solution was transferred from the compound plate to the assay plate by using an acoustic dispenser. Final assay conditions: • Total reaction volume: 25 μl • Assay buffer: […] pH 7.4, 200 mM NaCl, 2 mM CaCl2, 5 mM DTT • 35 nM recombinant human PAD4 • 500 µM TSTGGRQGSHH (SEQ ID NO: 1) • 1.2% DMSO • Stop solution: 10% formic acid
Reaction mixtures were incubated at room temperature for 30 minutes. 10 μl each of the reaction mixtures was then mixed with 40 μl of 10% formic acid in a microtiter plate. The plate was frozen at −80° C. before shipping out on dry ice for RapidFire mass spectroscopy analysis.
Thawed samples were loaded onto the Rapid Fire 300 system (Agilent) wherein they were first sipped for 250 ms and then loaded onto a Agilent “C” (C18) cartridge using a mobile phase of water containing 0.09% formic acid/0.01% trifluoroacetic acid for 3000 ms desalting flowing at a rate of 1.5 ml/min. Once the samples were loaded and washed, a mobile phase of acetonitrile containing 0.09% formic acid/0.01% trifluoroacetic acid was used to elute the samples directly onto a Sciex API4000 triple quadrupole mass spectrometer for 3000 ms at a flow rate of 1.25 ml/min.
MRM transitions for substrate and product were monitored in positive ESI mode at m/z=562.3/969.7 and m/z=562.8/541.3 respectively. The dwell time for each transition was set at 100 ms, and the ESI voltage was used at 5500 with a source temperature of 650° C. Extracted ion peaks for each transition were integrated using the Rapid Fire Integrator software.

Test [2] has as its target T1, hPAD4 enzyme. Put plainly: RFMS Assay 1 (rapid-fire mass spectrum PAD4 inhibition assay, BAEE substrate). In kind it is biochemical. Conditions: 5 nM hPAD4 enzyme, 250 μM BAEE, 30 mins compound and enzyme preincubation at 37° C., 90 min enzyme/substrate reaction. In short, it runs like this:
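Human PAD4 (5 nM) preincubated 30 min at 37 °C with compound (top 50 μM, 0.5% DMSO), then 250 μM BAEE for 90 min at 37 °C in pH 7.5 HEPES with 50 μM calcium, 5 μM TPEN, 1 mM DTT. Product derivatized with phenyl glyoxal; citrulline product quantified by RapidFire MS/MS MRM, normalized to internal standard.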

pIC50: −log10 of the molar value.

T1 sequence (Q9UM07 whole entry): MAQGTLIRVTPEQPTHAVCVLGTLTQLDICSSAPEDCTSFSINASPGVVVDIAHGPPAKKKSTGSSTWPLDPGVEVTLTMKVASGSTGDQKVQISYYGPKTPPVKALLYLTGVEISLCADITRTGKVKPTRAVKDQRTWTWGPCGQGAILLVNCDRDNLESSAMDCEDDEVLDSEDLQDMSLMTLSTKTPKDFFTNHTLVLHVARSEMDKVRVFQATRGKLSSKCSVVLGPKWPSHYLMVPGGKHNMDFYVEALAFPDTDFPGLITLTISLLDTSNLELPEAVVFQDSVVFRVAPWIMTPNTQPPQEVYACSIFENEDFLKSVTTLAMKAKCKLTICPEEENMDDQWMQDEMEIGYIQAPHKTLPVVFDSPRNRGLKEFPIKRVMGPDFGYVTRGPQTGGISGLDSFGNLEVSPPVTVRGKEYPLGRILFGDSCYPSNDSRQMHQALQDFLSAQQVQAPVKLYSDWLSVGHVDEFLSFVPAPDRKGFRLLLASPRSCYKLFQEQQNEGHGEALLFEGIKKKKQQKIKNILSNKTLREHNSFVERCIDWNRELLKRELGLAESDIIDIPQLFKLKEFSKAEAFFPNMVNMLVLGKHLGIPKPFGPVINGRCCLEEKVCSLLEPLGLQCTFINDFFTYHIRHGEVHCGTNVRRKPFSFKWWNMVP

Take `Cc1nnc(CCOc2cccc3cc(-c4nc5cc6c(nc5n4C)CCN(C[C@H](N)CF)C6=O)n(CC4CC4)c23)o1` [Example 54, (S)-7-(2-amino-3-fluoropropyl)-2-(1-(cyclopropylmethyl)-7-(2-(5-methyl-1,3,4-oxadiazol-2-yl)ethoxy)-1H-indol-2-yl)-3-methyl-3,5,6,7-tetrahydro-8H-imidazo[4,5-b][1,6]naphthyridin-8-one]: the pIC50 on hPAD4 enzyme [1] and at hPAD4 enzyme [2] was 7.00 to 7.96 each time.

Take `Cn1c(-c2cc3cccc(OCCc4ccn[nH]4)c3n2CC2CC2)nc2cc3c(nc21)CCN(C[C@H](N)CF)C3=O` [Example 43, (S)-2-(7-(2-(1H-pyrazol-5-yl)ethoxy)-1-(cyclopropylmethyl)-1H-indol-2-yl)-7-(2-amino-3-fluoropropyl)-3-methyl-3,5,6,7-tetrahydro-8H-imidazo[4,5-b][1,6]naphthyridin-8-one]: the pIC50 (commonly the negative decadic logarithm of the IC50, by convention in mol/L) at hPAD4 enzyme [1] is 7.00 to 7.96; on hPAD4 enzyme [2], no less than 8.00.

`Cn1c(-c2cc3cccc(OCCn4cnc(F)c4)c3n2CC2CC2)nc2cc3c(nc21)CCN(C[C@H](N)CF)C3=O` [Example 70, (S)-7-(2-amino-3-fluoropropyl)-2-(1-(cyclopropylmethyl)-7-(2-(4-fluoro-1H-imidazol-1-yl)ethoxy)-1H-indol-2-yl)-3-methyl-3,5,6,7-tetrahydro-8H-imidazo[4,5-b][1,6]naphthyridin-8-one]: the pIC50 on hPAD4 enzyme [1] was 7.00 to 7.96; at hPAD4 enzyme [2], no less than 8.00.

As for `Cc1ncoc1CCOc1cccc2cc(-c3nc4cc5c(nc4n3C)CCN(C[C@H](N)CF)C5=O)n(CC3CC3)c12` [Example 48, (S)-7-(2-amino-3-fluoropropyl)-2-(1-(cyclopropylmethyl)-7-(2-(4-methyloxazol-5-yl)ethoxy)-1H-indol-2-yl)-3-methyl-3,5,6,7-tetrahydro-8H-imidazo[4,5-b][1,6]naphthyridin-8-one], the pIC50 was 6.30 to 7.00 on hPAD4 enzyme [1] and 7.00 to 7.96 at hPAD4 enzyme [2].

Take `Cn1c(-c2cc3cccc(OCCc4cnco4)c3n2CC2CC2)nc2cc3c(nc21)CCN(C[C@H](N)CF)C3=O` [Example 41, (S)-7-(2-amino-3-fluoropropyl)-2-(1-(cyclopropylmethyl)-7-(2-(oxazol-5-yl)ethoxy)-1H-indol-2-yl)-3-methyl-3,5,6,7-tetrahydro-8H-imidazo[4,5-b][1,6]naphthyridin-8-one]: the values for the negative-log IC50 (pIC50) at hPAD4 enzyme [1] and on hPAD4 enzyme [2] were 7.00 to 7.96 and no less than 8.00, respectively.

As to `Cn1c(-c2cc3cccc(OC(F)Cn4cncc4F)c3n2CC2CC2)nc2cc3c(nc21)CCN(C[C@H](N)CF)C3=O` (single isomer, unassigned) [Example 75b], the pIC50 at hPAD4 enzyme [1] was 7.00 to 7.96; on hPAD4 enzyme [2], no less than 8.00.

For the compound `C[C@@H](N)CN1CCc2nc3c(cc2C1=O)nc(-c1cc2ccccc2n1CC1CC1)n3C` [Example 24, (R)-7-(2-aminopropyl)-2-(1-(cyclopropylmethyl)-1H-indol-2-yl)-3-methyl-3,5,6,7-tetrahydro-8H-imidazo[4,5-b][1,6]naphthyridin-8-one], the pIC50 was 6.00 to 6.30 on hPAD4 enzyme [1] and 7.00 to 7.96 on hPAD4 enzyme [2].

In the case of `C[C@H](Cn1ccnc1)Oc1cccc2cc(-c3nc4cc5c(nc4n3C)CCN(C[C@H](N)CF)C5=O)n(CC3CC3)c12` [Example 62, 2-(7-(((R)-1-(1H-imidazol-1-yl)propan-2-yl)oxy)-1-(cyclopropylmethyl)-1H-indol-2-yl)-7-((S)-2-amino-3-fluoropropyl)-3-methyl-3,5,6,7-tetrahydro-8H-imidazo[4,5-b][1,6]naphthyridin-8-one], the pIC50 at hPAD4 enzyme [1] is 6.30 to 7.00; at hPAD4 enzyme [2], 7.00 to 7.96.

`COc1cccc2cc(-c3nc4cc5c(nc4n3C)CCN(C[C@H](N)CF)C5=O)n(Cc3ccno3)c12` [Example 7, (S)-7-(2-amino-3-fluoropropyl)-2-(1-(isoxazol-5-ylmethyl)-7-methoxy-1H-indol-2-yl)-3-methyl-3,5,6,7-tetrahydro-8H-imidazo[4,5-b][1,6]naphthyridin-8-one]: the results for the pIC50 on hPAD4 enzyme [1] and against hPAD4 enzyme [2] were 6.30 to 7.00 and 7.00 to 7.96, respectively.

For the compound `Cn1c(-c2cc3ccccc3n2CC2CC2)nc2cc3c(nc21)CCN(C[C@H](N)CF)C3=O` [Example 20, (S)-7-(2-amino-3-fluoropropyl)-2-(1-(cyclopropylmethyl)-1H-indol-2-yl)-3-methyl-3,5,6,7-tetrahydro-8H-imidazo[4,5-b][1,6]naphthyridin-8-one], the pIC50 is 6.00 to 6.30 on hPAD4 enzyme [1] and less than 6.00 against hPAD4 enzyme [2].

`COc1cccc2cc(-c3nc4cc5c(nc4n3C)CCN(C[C@H]3COCCN3)C5=O)n(CC3(F)CC3)c12` [Example 26, (S)-2-(1-((1-fluorocyclopropyl)methyl)-7-methoxy-1H-indol-2-yl)-3-methyl-7-(morpholin-3-ylmethyl)-3,5,6,7-tetrahydro-8H-imidazo[4,5-b][1,6]naphthyridin-8-one]: the pIC50 on hPAD4 enzyme [1] and against hPAD4 enzyme [2] was 6.30 to 7.00 throughout.

`COc1c(F)ccc2cc(-c3nc4cc5c(nc4n3C)CCN(C[C@H](N)CF)C5=O)n(Cc3ccno3)c12` [Example 23, (S)-7-(2-amino-3-fluoropropyl)-2-(6-fluoro-1-(isoxazol-5-ylmethyl)-7-methoxy-1H-indol-2-yl)-3-methyl-3,5,6,7-tetrahydro-8H-imidazo[4,5-b][1,6]naphthyridin-8-one]: the pIC50 at hPAD4 enzyme [1] is 6.00 to 6.30; at hPAD4 enzyme [2] it was 7.00 to 7.96.

With `Cn1c(-c2cc3cccc(OCCc4cnn[nH]4)c3n2CC2CC2)nc2cc3c(nc21)CCN(C[C@H](N)CF)C3=O` [Example 47, (S)-2-(7-(2-(1H-1,2,3-triazol-5-yl)ethoxy)-1-(cyclopropylmethyl)-1H-indol-2-yl)-7-(2-amino-3-fluoropropyl)-3-methyl-3,5,6,7-tetrahydro-8H-imidazo[4,5-b][1,6]naphthyridin-8-one], the pIC50 at hPAD4 enzyme [1] is 7.00 to 7.96; against hPAD4 enzyme [2], no less than 8.00.

`Cn1c(-c2cc3cccc(OC[C@@H]4CNC(=O)O4)c3n2CC2CC2)nc2cc3c(nc21)CCN(C[C@H](N)CF)C3=O` [Example 34, (S)-5-(((2-(7-((S)-2-amino-3-fluoropropyl)-3-methyl-8-oxo-5,6,7,8-tetrahydro-3H-imidazo[4,5-b][1,6]naphthyridin-2-yl)-1-(cyclopropylmethyl)-1H-indol-7-yl)oxy)methyl)oxazolidin-2-one]: the pIC50 on hPAD4 enzyme [1] is 7.00 to 7.96; at hPAD4 enzyme [2], no less than 8.00.

As for `Cn1c(-c2cc3cccc(OCCc4cnoc4)c3n2CC2CC2)nc2cc3c(nc21)CCN(C[C@H](N)CF)C3=O` [Example 39, (S)-7-(2-amino-3-fluoropropyl)-2-(1-(cyclopropylmethyl)-7-(2-(isoxazol-4-yl)ethoxy)-1H-indol-2-yl)-3-methyl-3,5,6,7-tetrahydro-8H-imidazo[4,5-b][1,6]naphthyridin-8-one], the figures for the pIC50 at hPAD4 enzyme [1] and against hPAD4 enzyme [2] were 7.00 to 7.96 and no less than 8.00, respectively.

On to `COc1cccc2cc(-c3nc4cc5c(nc4n3C)CCN(C[C@H](N)CF)C5=O)n(Cc3ncc(C)o3)c12` [Example 11, (S)-7-(2-amino-3-fluoropropyl)-2-(7-methoxy-1-((5-methyloxazol-2-yl)methyl)-1H-indol-2-yl)-3-methyl-3,5,6,7-tetrahydro-8H-imidazo[4,5-b][1,6]naphthyridin-8-one], for which the pIC50 at hPAD4 enzyme [1] and at hPAD4 enzyme [2] was 6.30 to 7.00 in each case.

Turning to `Cn1c(-c2cc3ccc(C(C)(C)O)nc3n2CC2CC2)nc2cc3c(nc21)CCN(C[C@H](N)CF)C3=O` [Example 33, (S)-7-(2-amino-3-fluoropropyl)-2-(1-(cyclopropylmethyl)-6-(2-hydroxypropan-2-yl)-1H-pyrrolo[2,3-b]pyridin-2-yl)-3-methyl-3,5,6,7-tetrahydro-8H-imidazo[4,5-b][1,6]naphthyridin-8-one], the pIC50 on hPAD4 enzyme [1] was 6.00 to 6.30; on hPAD4 enzyme [2] it was 7.00 to 7.96.

For the compound `Cn1c(-c2cc3cccc(OC(F)Cn4cncc4F)c3n2CC2CC2)nc2cc3c(nc21)CCN(C[C@H](N)CF)C3=O` (single isomer, unassigned) [Example 75a], the negative logarithm of the IC50 (pIC50) at hPAD4 enzyme [1] is 7.00 to 7.96; at hPAD4 enzyme [2], no less than 8.00.

Turning to `Cn1c(-c2cc3cccc(OC[C@@H]4CNC(=O)C4)c3n2CC2CC2)nc2cc3c(nc21)CCN(C[C@H](N)CF)C3=O` [Example 59, 7-((S)-2-amino-3-fluoropropyl)-2-(1-(cyclopropylmethyl)-7-(((S)-5-oxopyrrolidin-3-yl)methoxy)-1H-indol-2-yl)-3-methyl-3,5,6,7-tetrahydro-8H-imidazo[4,5-b][1,6]naphthyridin-8-one], the pIC50 at hPAD4 enzyme [1] and against hPAD4 enzyme [2] was 7.00 to 7.96 in each case.
